From US12366579B2, “Sulfur-heterocycle exchange chemistry and uses thereof” (University of Virginia Patent Foundation, priority 2019, dated 2025)
Entries after “also recorded” stand apart in the source; their conditions may differ.

Tests used:
[1] = molecular target: T1, PLD3 (Y437) (Homo sapiens, UniProt Q8IV08); experiment: Competitive chemical proteomics of SuTEx fragments vs HHS-482, PLD3 site; assay type: binding; conditions: fragment 50 μM, 30 min, 37° C.
T1 construct: endogenous in cells; host or cells: DM93 melanoma cells, soluble proteome (lysate)
Description: (§1) Heavy and light proteomes (432 μl of each) were diluted to 2.3 mg ml^−1 in PBS and sample aliquots (432 μl) were treated with SuTEx fragment at the indicated concentrations (5 μl, 100× stock in DMSO), mixed gently and incubated for 30 min at 37° C. Samples were then treated with HHS-482 (5 μL, 5 mM stock in DMSO) for 30 min at 37° C. Probe-modified proteomes were conjugated to desthiobiotin-PEG3-azide followed by enrichment of probe-modified peptides for nano-electrospray ionization-LC-MS/MS analyses as previously described^57.
The chemical proteomic method for functional tyrosine profiling^72 was tailored to investigate AG/LG effects on SuTEx fragment reactivity in complex proteomes. In brief, isotopically light and heavy soluble proteomes from DM93 melanoma cells cultured by stable isotopic labeling by amino acids in cell culture (SILAC^80) media were used for quantitative liquid chromatography-mass spectrometry (LC-MS) studies. […] Proteomes were digested with trypsin protease, HHS-482-modified peptides enriched by avidin chromatography and analyzed by high-resolution LC-MS/MS and bioinformatics as described hereinabove.
To evaluate substituent effects on proteome activity, reactivity profiles of each respective SuTEx fragment were compared across >1500 total distinct HHS-482-modified tyrosine sites from >650 detected proteins. […]

[2] = HPLC assay for solution reactivity of sulfonyl triazole fragments with p-cresol; assay type: physicochemical; conditions: HPLC assay, TMG base
Description: HPLC Assay for Profiling Solution Reactivity and Stability of Sulfonyl Triazole Fragments
The following reagents were prepared and stored on ice prior to use. 0.1 M solution of caffeine in acetonitrile, 1.0 M solution of n-butylamine, p-cresol, tetramethylguanidine […], 1 M HOAc in ACN and 10 mM solution of SuTEx fragment in DMF-ACN mixture (10:90, v/v). 500 μL of fragment solution was transferred to a dram vial on ice. To the mixture, 5.5 μL of TMG and 5.5 μL of p-cresol or n-butylamine was added and solutions were stirred on ice for 6 h. To monitor reactivity, 50 μL aliquots were removed at indicated time points and quenched with 10 μL of a 1:1 mixture of caffeine and HOAc. Samples were injected (1 μL) and analyzed by reverse-phase HPLC on a Shimadzu 1100 Series spectrometer (Shimadzu, Kyoto, Japan) with UV detection at 254 nm. Reaction progress was evaluated by monitoring consumption of starting material (SuTEx fragment) normalized to caffeine standard. Chromatographic separation was performed using a Phenomenex Kinetex C18 column (2.6 μm, 50×4.6 mm) (Phenomenex, Torrance, California, United States of America). Mobile phases A and B were composed of H2O+0.1% HOAc and ACN+0.1% HOAc, respectively. Samples were analyzed using the following analytical conditions: using a flow rate of 0.8 ml min^−1, the gradient was as follows: 0-0.5 min, 15% B; 0.5-6.5 min 85% B; 6.5-7 min 100% B: 7-8.5 min 100% B; 8.5-9 min 15% B; 9-9.8 min 15% B.

[3] = molecular target: T2, recombinant GSTP1 lysates (Homo sapiens, UniProt P09211); experiment: GSTP1 biochemical substrate assay (GSH conjugation to BDNB)
T2 construct: FLAG (C); host or cells: HEK293T, transient transfection; soluble proteome used unpurified
Description: GSTP1 Biochemical Substrate Assay
Recombinant GSTP1-HEK293T soluble cell proteomes were diluted to 1 mg ml^−1 in assay buffer (100 mM NaH2PO4, pH 7.0). Samples were treated with inhibitor at indicated concentrations for 30 min at 37° C. GSH stock solution (250 mM in water) was diluted to 4 mM in assay buffer and 25 μl of diluted GSH solution was added to each sample. A substrate stock solution of 75 mM 1-bromo-2,4-dinitrobenzene […] in ethanol was diluted to 2 mM in assay buffer. Samples (25 μl) were aliquoted into a 96-well plate and spun briefly via centrifuge. Next, 50 μl of 2 mM BDNB was added to each well and the reaction was monitored in kinetic mode by measuring absorbance at 340 nm for 10 min on a BMG Labtech CLARIOstar plate reader (BMG Labtech, Cary, North Carolina, United States of America).

[4] = molecular target: T3, human GSTP1 (hGSTP1) (Homo sapiens, UniProt P09211); experiment: Gel-based competitive chemical proteomic screen with HHS-482, recombinant hGSTP1-HEK293T soluble proteomes; assay type: binding; conditions: fragment 50 μM, 30 min, 37° C.
T3 construct: FLAG (C); host or cells: HEK293T, transient transfection; soluble proteome used unpurified
Description: Gel-Based Chemical Proteomic Assay
Cell pellets were lysed in PBS and fractionated (100,000×g, 45 min, 4° C.) to generate soluble and membrane fractions. Protein concentrations were determined using Bio-Rad DC protein assay (Bio-Rad Laboratories, Inc., Hercules, California, United States of America), and adjusted to 1 mgml^−1 in PBS. Proteome samples (49 μl aliquots) were treated with DMSO vehicle or indicated concentration of SuTEx fragment (1 μL, 50× stock in DMSO) for 30 min at 37° C. Samples were then treated with HHS-482 probe (1 μL, 2.5 mM stock in DMSO) for 30 min at 37° C. Probe labeled samples were conjugated to rhodamine-azide (1 μL, 1.25 mM stock; final concentration of 25 μM) by copper-catalyzed azide-alkyne cycloadditions (CuAAC) for 1 h at room temperature followed by SDS-PAGE and in-gel fluorescence scanning as previously described^57.

[5] = molecular target: T4, GSTP1 Y8 (Homo sapiens, UniProt P09211); experiment: Quantitative chemical proteomics of live SILAC DM93 cells treated with SuTEx fragments; assay type: cell-based
T4 construct: endogenous in cells; host or cells: DM93 melanoma cells (SILAC)
Description: Live Cell Evaluation of Sulfonyl-Triazole Fragments
Cells grown to ˜90% confluency in 10 cm plates were treated with DMSO vehicle or SuTEx fragment (10 μl of 1,000× stock) in serum-free media for the indicated concentrations and times at 37° C. with 5% CO2. After treatment, cells were washed with cold PBS twice before collection and preparation for gel-based chemical proteomic evaluation as described above. For LC-MS studies, protein concentrations were normalized to 2.3 mg ml^−1 and 432 μl (for 1 mg final protein amount) were used for sample preparation as detailed below.
as §1
Next, SILAC DM93 cells were treated with JWB152 or JWB198 to determine whether these SuTEx fragments could ligand Y8 of endogenous GSTP1 in living systems (50 μM compound, 1.5 hr, 37° C.). Cells were pretreated with DMSO vehicle or SuTEx fragments followed by cells lysis, HHS-482 labeling of proteomes, and quantitative chemical proteomics.

[6] = tested on: DM93 soluble proteomes; experiment: Proteome-wide competitive chemical proteomics of SuTEx fragments vs HHS-482; assay type: binding, human; conditions: fragment 50 μM, 30 min, 37° C.
Description: as §1
The chemical proteomic method for functional tyrosine profiling^72 was tailored to investigate AG/LG effects on SuTEx fragment reactivity in complex proteomes. In brief, isotopically light and heavy soluble proteomes from DM93 melanoma cells cultured by stable isotopic labeling by amino acids in cell culture (SILAC^80) media were used for quantitative liquid chromatography-mass spectrometry (LC-MS) studies. Light and heavy DM93 proteomes were treated with dimethyl sulfoxide (DMSO) vehicle or SuTEx fragment (50 μM, 30 min, 37° C.), respectively, followed by labeling with the tyrosine-reactive probe HHS-482 described hereinabove (50 μM, 30 min, 37° C.) and copper-catalyzed azide-alkyne cycloaddition (CuAAC) conjugation of a desthiobiotin-azide enrichment tag. Proteomes were digested with trypsin protease, HHS-482-modified peptides enriched by avidin chromatography and analyzed by high-resolution LC-MS/MS and bioinformatics as described hereinabove.
To evaluate substituent effects on proteome activity, reactivity profiles of each respective SuTEx fragment were compared across >1500 total distinct HHS-482-modified tyrosine sites from >650 detected proteins. Fragments were screened across independent biological replicates (n=2-3) and high-quality tyrosine site annotations were identified by detection in at least a single biological replicate from each fragment dataset, probe-specific enrichment (HHS-482 probe/DMSO SILAC ratio (SR)>5), and quality control confidence criteria of ≥300 Byonic score^31, […] protein false discovery rate (FDR), and ≤5 ppm mass accuracy in order to minimize the potential for false positives^72. SILAC ratios (SR) from competitive studies (Light-DMSO/Heavy-fragment) were used to identify fragment-competed tyrosine residues as sites showing >75% reduction in enrichment by HHS-482 compared with DMSO vehicle control (i.e. liganded tyrosines, SR>4). In total, 305 liganded tyrosines on 213 distinct proteins were identified, corresponding to ˜30% and ˜44% of total quantified tyrosines and proteins, respectively. […]

T2 sequence (P09211 whole entry): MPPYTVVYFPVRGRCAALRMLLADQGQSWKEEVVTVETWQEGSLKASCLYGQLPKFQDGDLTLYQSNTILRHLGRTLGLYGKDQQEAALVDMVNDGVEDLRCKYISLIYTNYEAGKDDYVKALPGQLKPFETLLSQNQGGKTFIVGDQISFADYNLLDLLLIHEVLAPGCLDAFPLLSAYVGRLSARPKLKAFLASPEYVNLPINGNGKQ
T4 sequence (P09211 whole entry, the tested form may be a part): as the sequence (P09211 whole entry) above
T1 sequence (Q8IV08 whole entry, the tested form may be a part): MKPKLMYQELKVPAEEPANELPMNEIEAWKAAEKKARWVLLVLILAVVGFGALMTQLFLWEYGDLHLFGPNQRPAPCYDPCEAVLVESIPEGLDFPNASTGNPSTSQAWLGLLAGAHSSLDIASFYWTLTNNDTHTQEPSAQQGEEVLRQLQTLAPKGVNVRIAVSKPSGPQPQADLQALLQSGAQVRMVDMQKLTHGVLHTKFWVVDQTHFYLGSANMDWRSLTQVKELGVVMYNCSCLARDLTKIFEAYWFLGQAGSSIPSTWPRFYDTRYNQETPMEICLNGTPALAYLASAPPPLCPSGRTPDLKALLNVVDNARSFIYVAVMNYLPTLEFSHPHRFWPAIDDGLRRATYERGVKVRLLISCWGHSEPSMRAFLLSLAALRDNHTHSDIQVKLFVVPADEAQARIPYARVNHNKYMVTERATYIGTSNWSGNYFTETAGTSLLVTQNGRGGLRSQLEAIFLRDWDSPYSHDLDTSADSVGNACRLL
T3 sequence (P09211 whole entry, the tested form may be a part): as the sequence (P09211 whole entry) above

Structure (SMILES): O=S(=O)(C1CC1)n1cnc(-c2ccc(C(F)(F)F)cc2)n1 [JWB146, 1-(Cyclopropylsulfonyl)-3-(4-(trifluoromethyl)phenyl)-1H-1,2,4-triazole]
- SILAC ratio (SR) at tyrosine competed site PLD3 Y437 [1]: > 6
- solution reactivity with p-cresol [2]: largely unreactive
- inhibitory activity against GSTP1 ([3]; negative control probes, highest concentration tested 100 μM): lack of activity; also recorded: did not show inhibitory activity

Structure (SMILES): O=S(=O)(c1ccc2ccccc2c1)n1cnc(-c2ccncc2)n1 [JWB198, 4-(1-(Naphthalen-2-ylsulfonyl)-1H-1,2,4-triazol-3-yl)pyridine]
- block of HHS-482 labeling of GSTP1 [4]: block HHS-482 labeling to levels comparable with Y8F mutant
- blockade of HHS-482 labeling of native GSTP1 Y8 in live cells ([5]; 50 μM compound, 1.5 hr, 37° C.): ~70%
- SILAC ratio (SR) at other GSTP1 probe-modified sites ([5]; Y50, Y64, Y80, Y119, and Y199, 50 μM): ~1
- IC50 ([3]; inhibitor 30 min at 37° C., n=3, read-out: IC50, in vitro potency against GSTP1 by GSH substrate assay): 16 µM
- liganded tyrosine frequency (SR>4) [6]: 1.3%
